From PubChem BioAssay AID2060885 (Molecular Pharmacology Branch, DTP, NCI, 2025)
pIC50: −log10 of the molar value. Several values for one entry are separate records, joined by “and”; a condition that tells them apart may be missing. Equal values may be shown once.

Test system: NCI-H23 complex spheroids with HUVEC/MSC, viability
Assay: Anticancer human tumor NCI-H23 cell line growth inhibition [RAS];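 note: spheroids exposed to compound for 7 days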;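 for viability, T/C: 100% = DMSO vehicle control viability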
Settings: for viability, T/C: stronger effect = lower value
Outline: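 Tumour cells grown as complex spheroids with HUVEC endothelial cells and mesenchymal stem cells, treated with RAS pathway inhibitor combinations. Each agent spans half-log steps from near clinical Cmax, or 10 microM where Cmax is unknown.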

[1] = curve of first compound, second compound 0.000949 µM
[2] = curve of first compound, second compound 0.003 µM
[3] = curve of first compound, second compound 0.00949 µM
[4] = curve of first compound, second compound 0.03 µM
[5] = curve of first compound, second compound 0.0949 µM
[6] = curve of first compound, second compound 0.3 µM
[7] = second compound 0.000949 µM, first compound 0.0316 µM
[8] = second compound 0.000949 µM, first compound 0.1 µM
[9] = second compound 0.000949 µM, first compound 0.316 µM
[10] = second compound 0.000949 µM, first compound 1 µM
[11] = second compound 0.003 µM, first compound 0.0316 µM
[12] = second compound 0.003 µM, first compound 0.1 µM
[13] = second compound 0.003 µM, first compound 0.316 µM
[14] = second compound 0.003 µM, first compound 1 µM
[15] = second compound 0.00949 µM, first compound 0.0316 µM
[16] = second compound 0.00949 µM, first compound 0.1 µM
[17] = second compound 0.00949 µM, first compound 0.316 µM
[18] = second compound 0.00949 µM, first compound 1 µM
[19] = second compound 0.03 µM, first compound 0.0316 µM
[20] = second compound 0.03 µM, first compound 0.1 µM
[21] = second compound 0.03 µM, first compound 0.316 µM
[22] = second compound 0.03 µM, first compound 1 µM
[23] = second compound 0.0949 µM, first compound 0.0316 µM
[24] = second compound 0.0949 µM, first compound 0.1 µM
[25] = second compound 0.0949 µM, first compound 0.316 µM
[26] = second compound 0.0949 µM, first compound 1 µM
[27] = second compound 0.3 µM, first compound 0.0316 µM
[28] = second compound 0.3 µM, first compound 0.1 µM
[29] = second compound 0.3 µM, first compound 0.316 µM
[30] = second compound 0.3 µM, first compound 1 µM

SMILES: NC1c2ccccc2OC12CCN(c1cnc3c(N4CCCc5ncccc54)n[nH]c3n1)CC2 (centres undefined) + CCn1c(-c2cccnc2C(C)OC)c2c3cc(ccc31)N1CCOC(CC(NC(=O)C(C(C)C)N(C)C(=O)C3(F)CCN(C(=O)C#CC(C)(C)N(C)C)CC3)C(=O)N3CCCC(N3)C(=O)OCC(C)(C)C2)C1
- pIC50 [1]: > 7.50
- pIC50 [2]: > 7.50
- pIC50 [3]: > 7.50
- pIC50 [4]: > 7.50
- pIC50 [5]: > 7.50
- pIC50 [6]: > 7.50
- viability, T/C [7]: 19.7%
- viability, T/C [8]: 16.4%
- viability, T/C [9]: 10.6%
- viability, T/C [10]: 9.5%
- viability, T/C (second compound 0.000949 µM, first compound 3.16 µM): 7.93%
- viability, T/C (second compound 0.000949 µM, first compound 10 µM): 5.17%
- viability, T/C [11]: 20.7%
- viability, T/C [12]: 15.8%
- viability, T/C [13]: 11.7%
- viability, T/C [14]: 8.99%
- viability, T/C (second compound 0.003 µM, first compound 3.16 µM): 6.81%
- viability, T/C (second compound 0.003 µM, first compound 10 µM): 5.13%
- viability, T/C [15]: 18.1%
- viability, T/C [16]: 15%
- viability, T/C [17]: 11.4%
- viability, T/C [18]: 9.87%
- viability, T/C (second compound 0.00949 µM, first compound 3.16 µM): 5.94%
- viability, T/C (second compound 0.00949 µM, first compound 10 µM): 5.23%
- viability, T/C [19]: 17.8%
- viability, T/C [20]: 14.9%
- viability, T/C [21]: 11.8%
- viability, T/C [22]: 8.83%
- viability, T/C (second compound 0.03 µM, first compound 3.16 µM): 5.09%
- viability, T/C (second compound 0.03 µM, first compound 10 µM): 5.86%
- viability, T/C [23]: 15%
- viability, T/C [24]: 12.7%
- viability, T/C [25]: 10.3%
- viability, T/C [26]: 7.47%
- viability, T/C (second compound 0.0949 µM, first compound 3.16 µM): 5.66%
- viability, T/C (second compound 0.0949 µM, first compound 10 µM): 5.23%
- viability, T/C [27]: 16.5%
- viability, T/C [28]: 11.5%
- viability, T/C [29]: 9.55%
- viability, T/C [30]: 6.6%
- viability, T/C (second compound 0.3 µM, first compound 3.16 µM): 6.48%
- viability, T/C (second compound 0.3 µM, first compound 10 µM): 5.71%

SMILES: O=C(c1ccc(F)c(F)c1Nc1ccc(I)cc1F)N1CC(O)([C@@H]2CCCCN2)C1
- viability, T/C (compound 0.0316 µM): 68.2% [middle of 4 runs]
- viability, T/C (compound 0.1 µM): 46.3% [middle of 4 runs]
- viability, T/C (compound 0.316 µM): 34.2% [middle of 4 runs]
- viability, T/C (compound 1 µM): 19.7% [middle of 4 runs]
- IC50 (curve of compound): 78.2 nM [middle of 4 runs]

SMILES: C#Cc1c(F)ccc2cc(O)cc(-c3ncc4c(N5CC6CCC(C5)N6)nc(OCC56CCCN5CC(F)C6)nc4c3F)c12 (centres undefined)
- viability, T/C (compound 0.0316 µM): 108% [middle of 8 runs]
- viability, T/C (compound 0.1 µM): 105% [middle of 8 runs]
- viability, T/C (compound 0.316 µM): 99.5% [middle of 8 runs]
- viability, T/C (compound 1 µM): 89.5% [middle of 8 runs]
- viability, T/C (compound 3.16 µM): 63.2% [middle of 8 runs]
- viability, T/C (compound 10 µM): 38.2% [middle of 7 runs]
- IC50 (compound alone, run of 07/15/2024): 5.77 µM [middle of 8 runs]

SMILES: NC1c2ccccc2OC12CCN(c1cnc3c(N4CCCc5ncccc54)n[nH]c3n1)CC2 (centres undefined) + C#Cc1c(F)ccc2cc(O)cc(-c3ncc4c(N5CC6CCC(C5)N6)nc(OCC56CCCN5CC(F)C6)nc4c3F)c12
- pIC50 (curve of first compound, second compound 0.0316 µM): 6.55
- pIC50 (curve of first compound, second compound 0.1 µM): 6.57
- pIC50 (curve of first compound, second compound 0.316 µM): 6.76
- pIC50 (curve of first compound, second compound 1 µM): 7.24
- pIC50 (curve of first compound, second compound 3.16 µM): > 7.50
- pIC50 (curve of first compound, second compound 10 µM): > 7.50
- viability, T/C (second compound 0.0316 µM, first compound 0.0316 µM): 69.3%
- viability, T/C (second compound 0.0316 µM, first compound 0.1 µM): 76.8%
- viability, T/C (second compound 0.0316 µM, first compound 0.316 µM): 47.3%
- viability, T/C (second compound 0.0316 µM, first compound 1 µM): 41.6%
- viability, T/C (second compound 0.0316 µM, first compound 3.16 µM): 35.7%
- viability, T/C (second compound 0.0316 µM, first compound 10 µM): 34%
- viability, T/C (second compound 0.1 µM, first compound 0.0316 µM): 74.9%
- viability, T/C (second compound 0.1 µM, first compound 0.1 µM): 65%
- viability, T/C (second compound 0.1 µM, first compound 0.316 µM): 45.8%
- viability, T/C (second compound 0.1 µM, first compound 1 µM): 38.6%
- viability, T/C (second compound 0.1 µM, first compound 3.16 µM): 33.9%
- viability, T/C (second compound 0.1 µM, first compound 10 µM): 30.1%
- viability, T/C (second compound 0.316 µM, first compound 0.0316 µM): 76.3%
- viability, T/C (second compound 0.316 µM, first compound 0.1 µM): 56.4%
- viability, T/C (second compound 0.316 µM, first compound 0.316 µM): 40.3%
- viability, T/C (second compound 0.316 µM, first compound 1 µM): 36.4%
- viability, T/C (second compound 0.316 µM, first compound 3.16 µM): 31.4%
- viability, T/C (second compound 0.316 µM, first compound 10 µM): 22.3%
- viability, T/C (second compound 1 µM, first compound 0.0316 µM): 58.4%
- viability, T/C (second compound 1 µM, first compound 0.1 µM): 40.6%
- viability, T/C (second compound 1 µM, first compound 0.316 µM): 32.8%
- viability, T/C (second compound 1 µM, first compound 1 µM): 32.4%
- viability, T/C (second compound 1 µM, first compound 3.16 µM): 21.7%
- viability, T/C (second compound 1 µM, first compound 10 µM): 19.6%
- viability, T/C (second compound 3.16 µM, first compound 0.0316 µM): 38.5%
- viability, T/C (second compound 3.16 µM, first compound 0.1 µM): 38.6%
- viability, T/C (second compound 3.16 µM, first compound 0.316 µM): 31.5%
- viability, T/C (second compound 3.16 µM, first compound 1 µM): 25.2%
- viability, T/C (second compound 3.16 µM, first compound 3.16 µM): 21%
- viability, T/C (second compound 3.16 µM, first compound 10 µM): 15.5%
- viability, T/C (second compound 10 µM, first compound 0.0316 µM): 28.4%
- viability, T/C (second compound 10 µM, first compound 0.1 µM): 30.7%
- viability, T/C (second compound 10 µM, first compound 0.316 µM): 19%
- viability, T/C (second compound 10 µM, first compound 1 µM): 16.2%
- viability, T/C (second compound 10 µM, first compound 3.16 µM): 15.5%
- viability, T/C (second compound 10 µM, first compound 10 µM): 12.6%

SMILES: Nc1ccn(C2OC(CO)C(O)C2(F)F)c(=O)n1 (centres undefined) + CCn1c(-c2cccnc2C(C)OC)c2c3cc(ccc31)N1CCOC(CC(NC(=O)C(C(C)C)N(C)C(=O)C3(F)CCN(C(=O)C#CC(C)(C)N(C)C)CC3)C(=O)N3CCCC(N3)C(=O)OCC(C)(C)C2)C1
- pIC50 [1]: > 8.50
- pIC50 [2]: > 8.50
- pIC50 [3]: > 8.50
- pIC50 [4]: > 8.50
- pIC50 [5]: > 8.50
- pIC50 [6]: > 8.50
- viability, T/C (second compound 0.000949 µM, first compound 0.00316 µM): 11.4%
- viability, T/C (second compound 0.000949 µM, first compound 0.01 µM): 1.89%
- viability, T/C [7]: 1.33%
- viability, T/C [8]: 1.32%
- viability, T/C [9]: 1.35%
- viability, T/C [10]: 1.46%
- viability, T/C (second compound 0.003 µM, first compound 0.00316 µM): 12.7%
- viability, T/C (second compound 0.003 µM, first compound 0.01 µM): 1.78%
- viability, T/C [11]: 1.61%
- viability, T/C [12]: 1.5%
- viability, T/C [13]: 1.63%
- viability, T/C [14]: 2.39%
- viability, T/C (second compound 0.00949 µM, first compound 0.00316 µM): 14.5%
- viability, T/C (second compound 0.00949 µM, first compound 0.01 µM): 1.69%
- viability, T/C [15]: 2.29%
- viability, T/C [16]: 1.8%
- viability, T/C [17]: 1.79%
- viability, T/C [18]: 1.41%
- viability, T/C (second compound 0.03 µM, first compound 0.00316 µM): 12.3%
- viability, T/C (second compound 0.03 µM, first compound 0.01 µM): 1.86%
- viability, T/C [19]: 1.31%
- viability, T/C [20]: 1.39%
- viability, T/C [21]: 1.75%
- viability, T/C [22]: 1.29%
- viability, T/C (second compound 0.0949 µM, first compound 0.00316 µM): 7.86%
- viability, T/C (second compound 0.0949 µM, first compound 0.01 µM): 1.71%
- viability, T/C [23]: 1.74%
- viability, T/C [24]: 1.51%
- viability, T/C [25]: 1.72%
- viability, T/C [26]: 1.81%
- viability, T/C (second compound 0.3 µM, first compound 0.00316 µM): 7.88%
- viability, T/C (second compound 0.3 µM, first compound 0.01 µM): 1.67%
- viability, T/C [27]: 1.78%
- viability, T/C [28]: 1.28%
- viability, T/C [29]: 1.59%
- viability, T/C [30]: 1.54%

SMILES: CC(C)n1nc(-c2ccc3oc(N)nc3c2)c2c(N)ncnc21
- viability, T/C (compound 0.000316 µM): 102% and 105% (2×) and 106%
- viability, T/C (compound 0.00316 µM): 88.6% [middle of 4 runs]
- viability, T/C (compound 0.01 µM): 83% [middle of 4 runs]
- viability, T/C (compound 0.0316 µM): 61.7% [middle of 4 runs]
- viability, T/C (compound 0.1 µM): 53.8% [middle of 4 runs]
- pIC50 (curve of compound): 7.08 and < 7.00 and 7.17
